Assay results as given in the supplement of paper PMC10307832.

Tests used:
Test in all cases: relative viability (nuclei count vs DMSO), 5 days (fraction); higher = more cells survive
201T = tested on: 201T
Summary of the method: (§1)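 One day after seeding in 1536-well plates, lung cancer cell lines were dosed by pin tool. Dosing was either single-drug or a fixed anchor-drug dose plus five library-drug doses (not always all listed) in √10 steps. After 5 days, nuclei were stained in one fix-and-stain step and counted on 4× images, and relative viability is the nuclei count of treated wells over that of vehicle wells, given as the median of duplicate plates.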

A-427 = tested on: A-427
Summary of the method: as §1

ABC-1 = tested on: ABC-1
Summary of the method: as §1

BEN = tested on: BEN
Summary of the method: as §1

CAL-12T = tested on: CAL-12T
Summary of the method: as §1

H3255 = tested on: H3255
Summary of the method: as §1

HCC-15 = tested on: HCC-15
Summary of the method: as §1

LC-2-ad = tested on: LC-2-ad
Summary of the method: as §1

LCLC-97TM1 = tested on: LCLC-97TM1
Summary of the method: as §1

NCI-H1650 = tested on: NCI-H1650
Summary of the method: as §1

NCI-H1651 = tested on: NCI-H1651
Summary of the method: as §1

NCI-H1792 = tested on: NCI-H1792
Summary of the method: as §1

NCI-H1915 = tested on: NCI-H1915
Summary of the method: as §1

NCI-H1944 = tested on: NCI-H1944
Summary of the method: as §1

NCI-H2023 = tested on: NCI-H2023
Summary of the method: as §1

NCI-H2087 = tested on: NCI-H2087
Summary of the method: as §1

NCI-H441 = tested on: NCI-H441
Summary of the method: as §1

NCI-H460 = tested on: NCI-H460
Summary of the method: as §1

NCI-H520 = tested on: NCI-H520
Summary of the method: as §1

NCI-H650 = tested on: NCI-H650
Summary of the method: as §1

NCI-H661 = tested on: NCI-H661
Summary of the method: as §1

NCI-H727 = tested on: NCI-H727
Summary of the method: as §1

PC-3 [JPC-3] = tested on: PC-3 [JPC-3]
Summary of the method: as §1

Clc1ccc(Nc2nnc(Cc3ccncc3)c3ccccc23)cc1 [Vatalanib] + CC(=O)c1c(C)c2cnc(Nc3ccc(N4CCNCC4)cn3)nc2n(C2CCCC2)c1=O [Palbociclib] (partner 0.5 µM)
relative viability (201T; first compound 0.04 µM): 0.777
relative viability (201T; first compound 0.1265 µM): 0.344
relative viability (201T; first compound 0.4 µM): 0.348
relative viability (201T; first compound 1.265 µM): 0.341
relative viability (201T; first compound 4 µM): 0.332
relative viability (A-427; first compound 0.04 µM): 0.568
relative viability (A-427; first compound 0.1265 µM): 0.482
relative viability (A-427; first compound 0.4 µM): 0.546
relative viability (A-427; first compound 4 µM): 0.508
relative viability (ABC-1; first compound 0.04 µM): 0.662
relative viability (ABC-1; first compound 0.1265 µM): 0.7
relative viability (ABC-1; first compound 0.4 µM): 0.892
relative viability (ABC-1; first compound 4 µM): 0.59
relative viability (BEN; first compound 0.04 µM): 0.474
relative viability (BEN; first compound 0.1265 µM): 0.456
relative viability (BEN; first compound 0.4 µM): 0.948
relative viability (BEN; first compound 1.265 µM): 0.489
relative viability (BEN; first compound 4 µM): 0.489
relative viability (CAL-12T; first compound 0.04 µM): 0.409
relative viability (CAL-12T; first compound 0.1265 µM): 0.312
relative viability (CAL-12T; first compound 0.4 µM): 0.384
relative viability (CAL-12T; first compound 1.265 µM): 0.345
relative viability (CAL-12T; first compound 4 µM): 0.425
relative viability (H3255; first compound 0.04 µM): 0.308
relative viability (H3255; first compound 0.1265 µM): 0.273
relative viability (H3255; first compound 0.4 µM): 0.325
relative viability (H3255; first compound 1.265 µM): 0.296
relative viability (H3255; first compound 4 µM): 0.309
relative viability (HCC-15; first compound 0.04 µM): 0.711
relative viability (HCC-15; first compound 0.1265 µM): 0.676
relative viability (HCC-15; first compound 0.4 µM): 0.759
relative viability (HCC-15; first compound 1.265 µM): 0.691
relative viability (HCC-15; first compound 4 µM): 0.668
relative viability (LC-2-ad; first compound 0.04 µM): 0.494
relative viability (LC-2-ad; first compound 0.1265 µM): 0.448
relative viability (LC-2-ad; first compound 0.4 µM): 0.544
relative viability (LC-2-ad; first compound 1.265 µM): 0.452
relative viability (LC-2-ad; first compound 4 µM): 0.471
relative viability (LCLC-97TM1; first compound 0.04 µM): 0.172
relative viability (LCLC-97TM1; first compound 0.1265 µM): 0.252
relative viability (LCLC-97TM1; first compound 0.4 µM): 0.194
relative viability (LCLC-97TM1; first compound 1.265 µM): 0.247
relative viability (LCLC-97TM1; first compound 4 µM): 0.21
relative viability (NCI-H1650; first compound 0.04 µM): 0.364
relative viability (NCI-H1650; first compound 0.1265 µM): 0.384
relative viability (NCI-H1650; first compound 0.4 µM): 0.299
relative viability (NCI-H1650; first compound 1.265 µM): 0.33
relative viability (NCI-H1650; first compound 4 µM): 0.312
relative viability (NCI-H1651; first compound 0.04 µM): 0.51
relative viability (NCI-H1651; first compound 0.1265 µM): 0.496
relative viability (NCI-H1651; first compound 0.4 µM): 0.479
relative viability (NCI-H1651; first compound 1.265 µM): 0.532
relative viability (NCI-H1651; first compound 4 µM): 0.513
relative viability (NCI-H1792; first compound 0.04 µM): 0.613
relative viability (NCI-H1792; first compound 0.1265 µM): 0.543
relative viability (NCI-H1792; first compound 0.4 µM): 0.637
relative viability (NCI-H1792; first compound 1.265 µM): 0.738
relative viability (NCI-H1792; first compound 4 µM): 0.687
relative viability (NCI-H1915; first compound 0.04 µM): 0.533
relative viability (NCI-H1915; first compound 0.1265 µM): 0.526
relative viability (NCI-H1915; first compound 0.4 µM): 0.516
relative viability (NCI-H1915; first compound 1.265 µM): 0.511
relative viability (NCI-H1915; first compound 4 µM): 0.511
relative viability (NCI-H1944; first compound 0.04 µM): 0.324
relative viability (NCI-H1944; first compound 0.1265 µM): 0.301
relative viability (NCI-H1944; first compound 0.4 µM): 0.364
relative viability (NCI-H1944; first compound 1.265 µM): 0.29
relative viability (NCI-H1944; first compound 4 µM): 0.319
relative viability (NCI-H2023; first compound 0.04 µM): 0.375
relative viability (NCI-H2023; first compound 0.1265 µM): 0.344
relative viability (NCI-H2023; first compound 0.4 µM): 0.439
relative viability (NCI-H2023; first compound 1.265 µM): 0.393
relative viability (NCI-H2023; first compound 4 µM): 0.366
relative viability (NCI-H2087; first compound 0.04 µM): 0.251
relative viability (NCI-H2087; first compound 0.1265 µM): 0.209
relative viability (NCI-H2087; first compound 0.4 µM): 0.205
relative viability (NCI-H2087; first compound 1.265 µM): 0.268
relative viability (NCI-H2087; first compound 4 µM): 0.22
relative viability (NCI-H441; first compound 0.04 µM): 0.223
relative viability (NCI-H441; first compound 0.1265 µM): 0.194
relative viability (NCI-H441; first compound 0.4 µM): 0.253
relative viability (NCI-H441; first compound 1.265 µM): 0.194
relative viability (NCI-H441; first compound 4 µM): 0.223
relative viability (NCI-H460; first compound 0.04 µM): 0.152
relative viability (NCI-H460; first compound 0.1265 µM): 0.169
relative viability (NCI-H460; first compound 0.4 µM): 0.211
relative viability (NCI-H460; first compound 1.265 µM): 0.148
relative viability (NCI-H460; first compound 4 µM): 0.0922
relative viability (NCI-H520; first compound 0.04 µM): 0.214
relative viability (NCI-H520; first compound 0.1265 µM): 0.242
relative viability (NCI-H520; first compound 0.4 µM): 0.255
relative viability (NCI-H520; first compound 1.265 µM): 0.199
relative viability (NCI-H520; first compound 4 µM): 0.19
relative viability (NCI-H650; first compound 0.04 µM): 0.308
relative viability (NCI-H650; first compound 0.1265 µM): 0.316
relative viability (NCI-H650; first compound 0.4 µM): 0.298
relative viability (NCI-H650; first compound 1.265 µM): 0.32
relative viability (NCI-H650; first compound 4 µM): 0.32
relative viability (NCI-H661; first compound 0.04 µM): 0.411
relative viability (NCI-H661; first compound 0.1265 µM): 0.387
relative viability (NCI-H661; first compound 0.4 µM): 0.441
relative viability (NCI-H661; first compound 1.265 µM): 0.397
relative viability (NCI-H661; first compound 4 µM): 0.401
relative viability (NCI-H727; first compound 0.1265 µM): 0.611
relative viability (NCI-H727; first compound 0.4 µM): 0.683
relative viability (NCI-H727; first compound 1.265 µM): 0.66
relative viability (NCI-H727; first compound 4 µM): 0.638
relative viability (PC-3 [JPC-3]; first compound 0.04 µM): 0.515
relative viability (PC-3 [JPC-3]; first compound 0.1265 µM): 0.549
relative viability (PC-3 [JPC-3]; first compound 0.4 µM): 0.573
relative viability (PC-3 [JPC-3]; first compound 1.265 µM): 0.538
relative viability (PC-3 [JPC-3]; first compound 4 µM): 0.544
